Reference: patent US20100226857A1, “TUMOR CELL DIFFERENTIATION AGENTS AS CHEMICAL INHIBITORS AND TREATMENTS FOR INTRACELLULAR PARASITES” (priority 2006, published 2010)
Values after ≈ are worked out from the molar mass of the structure shown. Read-outs that look alike come from different tables or passages of the source.

Legend:
[1] = tested on: T. gondii tachyzoites; assay: T. gondii tachyzoite proliferation assay in HS68 cells (tachyzoite count); assay type: cell-based, Toxoplasma gondii; conditions: for times tachyzoites are more sensitive than human tumor cells: tachyzoite IC50 vs literature tumor cell concentrations
Description: Parasite propagation—The RH strain of Toxoplasma gondii was grown in BM bovine macrophage cells or HS68 human foreskin fibroblast cells obtained from the American Type Culture Collection (Rockville, Md.). HS68 cells were grown in RPMI 1640 medium (Mediatech, Inc., Herndon, Va.) plus 10% fetal bovine serum (Atlanta Biologicals, Lawrenceville, Ga.), 1 mM sodium pyruvate and 100 U/ml each of penicillin and streptomycin. Parasites were harvested from infected cultures of HS68 cells growing in T-75 cm^2 flasks. After removing the culture medium, the cells were scraped into 5 ml of phosphate-buffered saline and a cell lysate obtained by passing through a 26-gauge needle. To purify the parasites, the cell lysate was filtered through a 3 micron (micrometer) filter.
(§1) Proliferation assays: HS68 cells were replica plated in 48-well dishes, and grown to confluence prior to infection with 5-10×10^4 freshly purified T. gondii tachyzoites/well. After 2 hours, the media and non-infective tachyzoites were removed, and replaced with RPMI medium containing 2% fetal bovine serum plus 1 mM sodium pyruvate, penicillin (100 U), streptomycin (100 U) and test agent or a vehicle control. The proliferation assays were terminated 48-72 hours post-infection when the untreated cells were heavily infected. All of the culture media were removed from the wells, and the tachyzoites in the media were fixed by dilution (1:1) into phosphate-buffered saline containing 10% formaldehyde. The tachyzoites were collected by brief centrifugation (30 seconds, […]) at room temperature using a tabletop microfuge. The tachyzoites were resuspended in 100 ul of phosphate-buffered saline, and duplicate aliquots were counted using a hemocytometer. […] The monolayer of HS68 cells in each well was fixed and stained for 5 minutes using a solution of 50% ethanol-5% formaldehyde-0.1% crystal violet in 0.85% sodium chloride, then rinsed with water, and air-dried. The minimum inhibitory concentration (MIC) of compounds that suppressed Toxoplasma-induced lysis of the HS68 cells was determined visually by counting the number of plaques/well in the monolayer.

[2] = tested on: T. gondii; assay: Plaque suppression / protection of HS68 monolayer from T. gondii; assay type: cell-based, Toxoplasma gondii; conditions: for MIC IC50 (ratio MIC/IC50): MIC plaque suppression relative to IC50 tachyzoite count; for MIC: Toxoplasma gondii, read-out: MIC (uM) Plaque Suppression; for state of HS68 monolayer of T. gondii-infected treated cells: 1 uM, 48 hours
Description: as §1

[3] = tested on: T. gondii tachyzoites; assay: In vivo acute toxoplasmosis in mice (survival); parameters: species or system Toxoplasma gondii; CD-1 mice; conditions: for control of acute toxoplasmosis in mice: TSA 0.5 mg/kg, SAHA 50 mg/kg, scriptaid 3.5 mg/kg i.p. once daily, valproic acid 300 mg/kg oral daily; for median survival: mice
Description: Specifically, female CD-1 mice (20 g) were inoculated in the sub-scapular region with 5,000 T. gondii tachyzoites on Day 0. […] The dose of scriptaid was not optimized in this experiment. In this study, valproic acid was administered orally in the drinking water at a dose of 300 mg/kg. Survival was monitored twice daily beginning on day 9 of the study. The results are depicted graphically in FIG. 5A and in tabular form in FIG. 5B.

[4] = tested on: MCF-7 human breast cancer cells; assay: ESR free radical (ROS) measurement in MCF-7 cell suspensions with DMPO; assay type: cell-based; conditions: for ESR signal indicative of ROS production in MCF-7 cells: 10 uM NSC3852, 8 uM NSC2039
Description: Free Radical Measurements: All ESR measurements were conducted using a Bruker EMIR spectrometer (Bruker Instruments Inc., Billerica, Mass.) and a flat-cell assembly. Hyperfine couplings were measured (to 0.1 G) directly from magnetic field separation using potassium tetraperoxochromate (K3CrO8) and 1,1-diphenyl-2-picrylhydrazyl as reference standards. The relative radical concentration was estimated by multiplying half of the peak height by (ΔHpp)^2, where (ΔHpp) represents peak-to-peak width. The Acquisit program was used for data acquisitions and analyses. MCF-7 cells (2.0×10^6 cells/60-mm^2 dish) were harvested 48 h after plating by trypsinization and collected at room temperature by centnfugation (225 g, 5 min). Cells were washed once with ice-cold PBS and resuspended in ice-cold PBS at 2×10^6 cells/ml. Radical production was measured in the presence of the spin trap 5,5-dimethyl-1-pyrroline-N-oxide (DMPO; Aldrich Chemical Co., Milwaukee, Wis.). DMPO (200 mM) and 1×10^6 cells test agents were mixed in 1.0 ml of PBS, incubated at 37° C. for 5 mm, and then transferred to a flat cell for ESR measurements.

[5] = tested on: MCF-7 cells; assay: Comet assay for DNA damage; assay type: cell-based, human
Description: Comet Analysis: The comet assay is a single-cell gel electrophoresis method for measuring DNA damage. MCF-7 cells (2×10^5/35-mm^2 dish) were treated 12 h after plating. Twenty-four hours later, the cells were harvested and resuspended (1.5×10^5 cells/ml) in ice-cold PBS. The PBS cell suspension (50 ul) was mixed with 500 ul of 42° C. low-melting point agarose, spread evenly (75 ul) onto a Comet Slide (Trevigen, Gaithersburg, Md.), and allowed to harden. The slides were then immersed in ice-cold lysis solution (Trevigen) for 45 mm to lyse the cells and then transferred to freshly prepared alkali solution (300 mM NaOH and 1 mM EDTA, […]) for 45 mM. at room temperature to denature the DNA. Electrophoresis was performed at 4° C. Slides were air-dried overnight at room temperature and then stained with SYBR Green (Trevigen). Comets were visualized by fluorescence microscopy at 630× magnification with the aid of an antifade solution. Comet images were analyzed using the LAI Automated Comet Assay Analysis System (Loats Associates, Inc., Westminster, Md.). DNA damage was quantified in 80 comets per treatment/experiment using the tail moment [Tail moment [(% DNA) (distance traveled)]].

[6] = tested on: Cryptosporidium parvum; assay: Real-time PCR analysis of C. parvum oocyst production in infected HCT-8 cells; assay type: cell-based; conditions: 48 hours, apicidin 70 ng/ml, SAHA 2.5 ug/ml; for % Reduction in oocysts numbers: vs 0.1% DMSO
Description: Monolayer cultures of HCT-8 human colon cells growing in 24-well plastic tissue culture dishes were infected with C. parvum oocysts for 3 hours. […] The cells were harvested, and DNA was extracted. The DNA was analyzed for the production of C. parvum oocysts from the infected cells using real-time PCR and DNA primers that specifically amplify the C. parvum oocysts wall protein (COWP).

[7] = tested on: HS68 human foreskin fibroblast cells; assay: Toxicity to HS68 host cells; assay type: cell-based; conditions: for toxicity to HS68 cells at highest concentration tested: 10 uM
[8] = tested on: human tumor cell lines; conditions: cited from earlier work
[9] = Toxoplasma gondii, RH strain T. gondii in HS68 cells, 48-well plate, 48-72 hours post-infection, mean+/-SEM, read-out: IC50 (uM) Tachyzoite Count
[10] = RH strain T. gondii in HS68 cells, 48-well plate, mean+/-SEM
[11] = RH strain T. gondii in HS68 cells, 48-well plate, 48-72 hours post-infection, mean+/-SEM, read-out: IC50 (uM) Tachyzoite Count

Molecule: CCCC(CCC)C(=O)[O-].[Na+] [Valproic acid, sodium valproate]
- IC50 [1, 9]: 1600 ± 1120 µM
- IC50 ([1]; Toxoplasma gondii, RH strain in HS68 cells, read-out: IC50 range of carboxylate inhibitors): 1000 to 5000 µM
- MIC IC50 (ratio MIC/IC50) [2]: 5.2
- MIC [2, 10]: 8300 ± 1000 µM
- control of acute toxoplasmosis in mice [3]: ineffective
- therapeutic effect against RH T. gondii in mice ([3]; doses up to 600 mg/kg/day, oral or intraperitoneal): not therapeutic
- median survival ([3]; i.p. 400 mg/kg and 600 mg/kg divided into 2 daily doses): 10 days
- median survival ([3]; oral dose of 600 mg/kg): 12 days

Molecule: Oc1cccc2cccnc12 [NSC2039, 8-quinolinol]
- ESR signal indicative of ROS production in MCF-7 cells [4]: no signal was produced
- DNA damage (comet tail moment) [5]: did not induce DNA damage

Molecule: NC(=O)c1cccnc1 [nicotinamide]
- activity against T. gondii in in vitro assays [1]: minimal activity

Molecule: CCCC(=O)[O-].[Na+] [Sodium butyrate, sodium butyrate]
- IC50 ([1]; Toxoplasma gondii, Hs68, read-out: IC50 (uM) Tachyzoite Count): 1000 ± 455 µM
- IC50 ([1]; Toxoplasma gondii, Hs68, read-out: IC50 range of carboxylate inhibitors): 1000 to 5000 µM
- MIC IC50 (ratio MIC/IC50) [2]: 4.2
- MIC [2]: 4200 ± 800 µM

Molecule: CCC(=O)CCCCC[C@@H]1NC(=O)[C@H]2CCCCN2C(=O)[C@H]([C@@H](C)CC)NC(=O)[C@H](Cc2cn(OC)c3ccccc23)NC1=O [Apicidin]
- number of oocysts/ml (mean ± S.D. n = 6) [6]: 517.7 ± 417.1 oocysts/ml
- % Reduction in oocysts numbers [6]: 92.2%

Molecule: CC(/C=C/C(=O)NO)=C\[C@@H](C)C(=O)c1ccc(N(C)C)cc1 [TSA, trichostatin A]
- IC50 [1, 11]: 0.041 ± 0.001 µM
- concentration that eliminated tachyzoites and plaque formation ([1]; T. gondii infected HS68 cells): 200 nM
- concentrations giving dramatic decrease in tachyzoite numbers ([1]; p<0.05): > 100 nM
- MIC IC50 (ratio MIC/IC50) [2]: 4.3
- MIC (uM) Plaque Suppression [2, 10]: 0.175 ± 0.025 µM (≈ 0.0529 µg/mL)
- concentration at which apoptotic HS68 cells were evident [7]: 500 nM
- control of acute toxoplasmosis in mice [3]: showed in vivo efficacy
- relative peak heights of the ESR signals (mean±range, n=2) ([4]; 200 nM, 1×10^6 MCF-7 cells, 5 min at 37° C.): 99±1 mm

Molecule: O=C(CCCCCN1C(=O)c2cccc3cccc(c23)C1=O)NO [Scriptaid]
- IC50 [1, 9]: 0.039 ± 0.011 µM
- IC50 ([1]; Toxoplasma gondii, RH strain in HS68 cells, average of independent experiments, read-out: IC50 T. gondii tachyzoites): 0.037 µM
- low concentrations stimulating tachyzoite numbers ([1]; biphasic response, FIG. 4): 1 to 10 nM
- times tachyzoites are more sensitive than human tumor cells [1]: 80-1500 times
- state of HS68 monolayer of T. gondii-infected treated cells [2]: completely intact
- MIC IC50 (ratio MIC/IC50) [2]: 5.8
- MIC [2, 10]: 0.225 ± 0.025 µM (≈ 0.0734 µg/mL)
- toxicity to HS68 cells at highest concentration tested [7]: non-toxic
- control of acute toxoplasmosis in mice [3]: showed in vivo efficacy
- daily dose that can extend the life of mice infected with RH T. gondii ([3]; for 14 days): about 3.5 mg/kg
- IC50 levels reducing tumor cell proliferation in vitro [8]: 1 to 20 µg/mL
- IC50 ([8]; read-out: IC50 levels reducing tumor cell proliferation in vitro): 3 to 60 µM

Molecule: 4-phenylbutyrate
- IC50 [1, 11]: 5350 ± 2750 µM
- MIC IC50 (ratio MIC/IC50) [2]: 3.1
- MIC (uM) Plaque Suppression [2, 10]: 16,700 ± 3300 uM

Molecule: O=C(CCCCCCC(=O)Nc1ccccc1)NO [SAHA, suberoylanilide hydroxamic acid]
- times tachyzoites are more sensitive than human tumor cells [1]: 10-200 times
- state of HS68 monolayer of T. gondii-infected treated cells [2]: completely intact
- MIC [2, 10]: 0.4 ± 0.1 µM (≈ 0.106 µg/mL)
- toxicity to HS68 cells at highest concentration tested [7]: no discernable toxicity
- number of oocysts/ml (mean ± S.D. n = 6) [6]: 252.8 ± 280 oocysts/ml
- % Reduction in oocysts numbers [6]: 96.2%
- control of acute toxoplasmosis in mice [3]: showed in vivo efficacy
- concentration reducing tumor cell numbers and inducing tumor cell apoptosis ([8]; variety of human tumor cell lines in tissue culture): 1 to 20 µM

Molecule: O=C(CCCCCCC(=O)NO)NO [SBHA, suberic bishydroxamic acid]
- IC50 [1, 11]: 0.213 ± 0.11 µM
- MIC IC50 (ratio MIC/IC50) [2]: 58.7
- MIC (uM) Plaque Suppression [2, 10]: 12.5 ± 5 µM (≈ 2.55 µg/mL)
- ESR signal indicative of ROS production in MCF-7 cells [4]: rapid and robust ESR signals
